Like-named read-outs stand apart in the source and are kept apart here.
Assays:
BRD4 BD1 = BRD4 BD1 (Homo sapiens, UniProt O60885); assay: AlphaScreen assay, BRD4 BD1 inhibition; format: binding; conditions: for inhibitory activity against BD1 (in words): measured range 0.0096 to 32 μM
Protocol: To find the hit molecules for BRD4 bromodomain inhibitor discovery, we performed an in vitro AlphaScreen assay with in-house chemical libraries.
The AlphaScreen assay was described previously and performed according to the manufacturer’s protocol (PerkinElmer, USA). The reaction buffer was 50 mM HEPES pH 7.4, 100 mM NaCl, 0.1% BSA, and 0.05% CHAPS.

BRD4 BD2 = BRD4 BD2 (Homo sapiens, UniProt O60885); assay: AlphaScreen assay, BRD4 BD2 inhibition; conditions: for inhibitory activity for BD2 (in words): AlphaScreen
[1] = Supplementary Table S2, mean of three independent measurements, 8-point titration from 0.0096 to 32 μM, read-out: IC50 (μM) for BD1
[2] = AlphaScreen, N = 3, standard deviations in parentheses, read-out: IC50 (BD1)

| SMILES | inhibitory activity against BD1 (in words) (BRD4 BD1; AlphaScreen) | IC50 (BRD4 BD1; [1]) [µM] | further results |
| --- | --- | --- | --- |
| Fc1cc2[nH]cc(CCNc3ccc4nnc(C5CC5)n4n3)c2cc1Cl [Compound 10, N-[2-(5-chloro-6-fluoro-1H-indol-3-yl)ethyl]-3-cyclopropyl-[1,2,4]triazolo[4,3-b]pyridazin-6-amine] | no inhibitory efficiency in the measured range | > 32 |  |
| Cc1nnc2ccc(N3CCSCC3)nn12 [Compound 17] | no inhibitory efficacy | > 32 |  |
| CC(C)N1CCN(c2ccc3nnc(C4CCC4)n3n2)CC1 [Compound 27, 3-cyclobutyl-6-(4-isopropylpiperazino)[1,2,4]triazolo[4,3-b]pyridazine] |  | > 32 |  |
| Cc1nnc2ccc(NCCC(=O)Nc3ccccc3)nn12 [Compound 38] |  | > 32 |  |
| CCc1nnc2ccc(NC(CO)Cc3c[nH]c4ccccc34)nn12 (stereo not drawn) [Compound 12, 2-[(3-ethyl-[1,2,4]triazolo[4,3-b]pyridazin-6-yl)amino]-3-(1H-indol-3-yl)propan-1-ol] | decreased blocking efficiency compared to that of 5 |  | IC50 (BRD4 BD2): 36.5 µM; inhibitory activity for BD2 (in words) (BRD4 BD2): have inhibitory activities for BD2; IC50 (BRD4 BD1; [2]): 25.2 µM |
| Cc1nnc2ccc(N3CCC4(CCNCC4)CC3)nn12 [Compound 22] |  | > 32 |  |
| Cc1nnc2ccc(NCc3ccccc3)nn12 [Compound 35] |  | 10.2 ± 1.29 |  |
| Cc1nnc2ccc(N3CCC4(CC3)OCCO4)nn12 [Compound 20] |  | > 32 |  |
| Cc1nnc2ccc(NCCc3c[nH]c4ccccc34)nn12 [Compound 5] |  |  | IC50 (BRD4 BD2): 23.2 µM; inhibitory activity for BD2 (in words) (BRD4 BD2): have inhibitory activities for BD2; IC50 (BRD4 BD1; [2]): 17.1 µM |
| CCC(=O)NCCNc1ccc2nnc(C)n2n1 [Compound 34] |  | > 32 |  |
| Cc1nnc2ccc(N3CCC4(CC3)CNC4)nn12 [Compound 23] |  | > 32 |  |
| Cc1nnc2ccc(N3C4CCC3COC4)nn12 [Compound 18] | no inhibitory efficacy | > 32 |  |
| FC(F)(F)c1nnc2ccc(NCCc3c[nH]c4ccccc34)nn12 [Compound 6, N-[2-(1H-indol-3-yl)ethyl)-3-(trifluoromethyl)-[1,2,4]triazolo[4,3-b]pyridazin-6-amine] | did not much improved the IC50 value |  | IC50 (BRD4 BD2): 11.3 µM; inhibitory activity for BD2 (in words) (BRD4 BD2): have inhibitory activities for BD2; IC50 (BRD4 BD1; [2]): 9.6 µM |
| Fc1ccc2[nH]c3c(c2c1)CCN(c1ccc2nnc(-c4ccccc4F)n2n1)C3 [Compound 11, 6-Fluoro-2-[3-(2-fluorophenyl)-[1,2,4]triazolo[4,3-b]pyridazin-6-yl]-1,3,4,9-tetrahydropyrido[3,4-b]indole] | no inhibition | > 32 |  |
| CCS(=O)(=O)NCCNc1ccc2nnc(C)n2n1 [Compound 29] |  | > 32 |  |
| Cc1nnc2ccc(N3CCC4(CCN(C(=O)OC(C)(C)C)CC4)CC3)nn12 [Compound 19] | exhibited inhibitory activities | 9.22 ± 1.6 |  |
| Cc1nnc2ccc(NCCO)nn12 [Compound 31] |  | > 32 |  |

| SMILES | inhibitory activity against BD1 (in words) (BRD4 BD1; AlphaScreen) | IC50 (BRD4 BD1; [1]) [µM] | further results |
| --- | --- | --- | --- |
| FC(F)(F)c1nnc2ccc(NCC(c3ccccc3)c3c[nH]c4ccccc34)nn12 (stereo not drawn) [Compound 9, N-[2-(1H-indol-3-yl)-2-phenylethyl]-3-(trifluoromethyl)-[1,2,4]triazolo[4,3-b]pyridazin-6-amine] | increased the IC50 value by only twofold compared to that of 6 | 23.4 ± 8.3 |  |
| CC(C)CCNC(=O)C1CCN(c2ccc3nnc(C(C)C)n3n2)CC1 [Compound 25, N-(3-methylbutyl)-1-[3-(propan-2-yl)[1,2,4]triazolo[4,3-b]pyridazin-6-yl]piperidine-4-carboxamide] |  | > 32 |  |
| COc1ccc(CNc2ccc3nnc(C)n3n2)cc1 [Compound 37] |  | 8.91 ± 0.94 |  |
| CCOC(=O)CCNc1ccc2nnc(C)n2n1 [Compound 33] | showed inhibitory activity | 7.51 ± 0.63 |  |
| CC(C)c1nnc2ccc(N3CCC(C(=O)NC4CC4)CC3)nn12 [Compound 26, N-cyclopropyl-1-[3-(propan-2-yl)[1,2,4]triazolo[4,3-b]pyridazin-6-yl]piperidine-4-carboxamide] |  | > 32 |  |
| Cc1nnc2ccc(NCCC(=O)O)nn12 [Compound 28] |  | > 32 |  |
| CC1CCN(c2ccc3nnc(CNS(=O)(=O)N(C)C)n3n2)CC1 [Compound 15] | no inhibitory efficacy | > 32 |  |
| Cc1nnc2ccc(N3CCCCC3)nn12 [Compound 13] | no blocking activities | > 32 |  |
| Cc1nnc2ccc(NCCNC(=O)c3ccccc3)nn12 [Compound 39] |  | > 32 |  |
| Cc1nnc2ccc(NCCNC(=O)Nc3ccccc3)nn12 [Compound 40] |  | > 32 |  |
| COc1ccc2[nH]cc(CCNc3ccc4nnc(C)n4n3)c2c1 [Compound 8, N-[2-(5-methoxy-1H-indol-3-yl)ethyl)-3-methyl-[1,2,4]triazolo[4,3-b]pyridazin-6-amine] | nearly same blocking efficacy | 25.7 ± 11.1 |  |
| Cc1nnc2ccc(N3CCC4(CC3)CN(C(=O)OC(C)(C)C)C4)nn12 [Compound 21] | exhibited inhibitory activities | 6.21 ± 1.2 |  |
| CC(C)c1nnc2ccc(N3CCC(C(=O)O)CC3)nn12 [Compound 24, 1-(3-Isopropyl-[1,2,4]triazolo[4,3-b]pyridazin-6-yl)piperidine-4-carboxylic acid] |  | > 32 |  |
| Cc1nnc2ccc(N3CCOCC3)nn12 [Compound 16] | no inhibitory efficacy | > 32 |  |
| Cc1nnc2ccc(NCCNC(=O)OC(C)(C)C)nn12 [Compound 32] |  | > 32 |  |
| Cc1nnc2ccc(NCCc3c[nH]c4ccc(F)cc34)nn12 [Compound 7, N-[2-(5-fluoro-1H-indol-3-yl)ethyl]-3-methyl-[1,2,4]triazolo[4,3-b]pyridazin-6-amine] | nearly same blocking efficacy | 29 ± 5.7 |  |

Source: paper PMC10319850, “Crystal structure of [1,2,4] triazolo[4,3- b ]pyridazine derivatives as BRD4 bromodomain inhibitors and structure–activity relationship study” (Scientific Reports, 2023)
